Counter-ions that a name gives are not always drawn.
Columns and labels:
Jak2 (a.a. 828-1132) = target: T1, Jak2 (a.a. 828-1132) (Homo sapiens, UniProt O60674); test: In vitro JAK kinase assay (HTRF, phosphorylation of a biotinylated peptide), JAK2, reported as JAK2/JAK1 ratio; type: biochemical
T1 construct: Jak2 (a.a. 828-1132); His tag (N); made in house; host or cells: insect cells (baculovirus)

[1] = target: T2, human JAK1 (a.a. 837-1142) (Homo sapiens, UniProt P23458); test: In vitro JAK kinase assay (HTRF, phosphorylation of a biotinylated peptide), JAK1; type: biochemical
T2 construct: human JAK1 (a.a. 837-1142); His tag (N); made in house; host or cells: insect cells (baculovirus)
T2 sequence (P23458 849-1154): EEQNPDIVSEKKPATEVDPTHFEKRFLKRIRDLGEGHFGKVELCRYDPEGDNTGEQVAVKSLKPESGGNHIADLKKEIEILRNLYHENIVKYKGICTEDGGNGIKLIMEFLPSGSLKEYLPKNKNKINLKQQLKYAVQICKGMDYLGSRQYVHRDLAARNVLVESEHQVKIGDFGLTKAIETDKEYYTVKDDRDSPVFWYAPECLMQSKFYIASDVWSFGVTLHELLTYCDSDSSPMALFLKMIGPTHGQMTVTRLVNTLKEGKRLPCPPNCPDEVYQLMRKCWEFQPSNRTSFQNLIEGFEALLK
Procedure, shortened: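 His-tagged catalytic domains (JAK1 a.a. 837-1142, JAK2 a.a. 828-1132) from insect cells phosphorylate 500 nM biotinylated peptide in 50 mM Tris pH 7.8, 100 mM NaCl, 5 mM DTT; ATP at Km (90 μM JAK1, 30 μM JAK2) or 1 mM, as indicated. 1 h at RT; EDTA stop, HTRF readout; IC50s.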

[2] = Assay Conditions Km (ATP 90 μM for Jak1, 30 μM for Jak2)
[3] = Assay Conditions Km (ATP 90 μM for Jak1)

T1 sequence (O60674 828-1132): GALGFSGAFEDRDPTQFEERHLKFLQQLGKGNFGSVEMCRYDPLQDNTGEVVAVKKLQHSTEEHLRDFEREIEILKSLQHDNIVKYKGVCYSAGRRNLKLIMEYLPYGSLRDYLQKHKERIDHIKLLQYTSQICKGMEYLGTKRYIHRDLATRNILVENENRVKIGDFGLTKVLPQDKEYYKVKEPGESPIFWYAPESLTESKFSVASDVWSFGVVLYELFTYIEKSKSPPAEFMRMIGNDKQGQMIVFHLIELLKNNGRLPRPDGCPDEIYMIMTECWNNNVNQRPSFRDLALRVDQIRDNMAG

## N#CC[C@@H]([C@H]1CCN(c2ncc3sccc3c2C#N)C1)n1cc(-c2ncnc3[nH]ccc23)cn1 [Example 74, 5-((3S)-3-{(1S)-2-cyano-1-[4-(7H-pyrrolo[2,3-d]pyrimidin-4-yl)-1H-pyrazol-1-yl]ethyl}pyrrolidin-1-yl)thieno[2,3-c]pyridine-4-carbonitrile]
Jak2 (a.a. 828-1132); Assay Conditions 1 mM ATP
  JAK2/JAK1 IC50 ratio: 6.2
[1]; Assay Conditions 1 mM ATP
  IC50: < 0.05 µM

## N#CC[C@@H]([C@H]1CCN(c2ccnnc2C#N)C1)n1cc(-c2ncnc3[nH]ccc23)cn1 [Example 106, 4-((S)-3-((S)-1-(4-(7H-pyrrolo[2,3-d]pyrimidin-4-yl)-1H-pyrazol-1-yl)-2-cyanoethyl)pyrrolidin-1-yl) pyridazine-3-carbonitrile trifluoroacetate salt]
Jak2 (a.a. 828-1132); Assay Conditions 1 mM ATP
  JAK2/JAK1 IC50 ratio: 12.6
[1]; Assay Conditions 1 mM ATP
  IC50: < 0.05 µM

## N#CCC(C1CCN(c2ccccc2C#N)C1)n1cc(-c2ncnc3[nH]ccc23)cn1 (stereo not shown) [Example 52, 2-(3-{2-cyano-1-[4-(7H-pyrrolo[2,3-d]pyrimidin-4-yl)-1H-pyrazol-1-yl]ethyl}pyrrolidin-1-yl)benzonitrile trifluoroacetate salt]
Jak2 (a.a. 828-1132); Assay Conditions 1 mM ATP
  JAK2/JAK1 IC50 ratio: 2
[1]; Assay Conditions 1 mM ATP
  IC50: < 0.05 µM

## N#CCC(C1CCN(c2ccc3ccsc3n2)C1)n1cc(-c2ncnc3[nH]ccc23)cn1 (single isomer, unassigned) [Example 156, 3-[4-(7H-pyrrolo[2,3-d]pyrimidin-4-yl)-1H-pyrazol-1-yl]-3-(1-thieno[2,3-b]pyridin-6-ylpyrrolidin-3-yl)propanenitrile]
Jak2 (a.a. 828-1132); Assay Conditions 1 mM ATP
  JAK2/JAK1 IC50 ratio: 8.0
[1]; Assay Conditions 1 mM ATP
  IC50: < 0.05 µM

## N#CCC(C1CCN(c2cccc(Cl)n2)C1)n1cc(-c2ncnc3[nH]ccc23)cn1 (single isomer, unassigned) [2, Step 2a]
Jak2 (a.a. 828-1132); [2]
  JAK2/JAK1 IC50 ratio: 7.3
[1]; [3]
  IC50: < 0.05 µM

## N#CCC(C1CCN(c2ncc3c(c2C#N)SCC3)C1)n1ccc(-c2ncnc3[nH]ccc23)c1 (single isomer, unassigned) [Example 174-1, 6-(3-{2-cyano-1-[3-(7H-pyrrolo[2,3-d]pyrimidin-4-yl)-1H-pyrrol-1-yl]ethyl}pyrrolidin-1-yl)-2,3-dihydrothieno[3,2-c]pyridine-7-carbonitrile]
Jak2 (a.a. 828-1132); Assay Conditions 1 mM ATP
  JAK2/JAK1 IC50 ratio: 28.5
[1]; Assay Conditions 1 mM ATP
  IC50: < 0.05 µM

## Cc1cnc(N2CC[C@H]([C@H](CC#N)n3cc(-c4ncnc5[nH]ccc45)cn3)C2)c(C#N)c1 [Example 109, 2-((S)-3-((S)-1-(4-(7H-pyrrolo[2,3-d]pyrimidin-4-yl)-1H-pyrazol-1-yl)-2-cyanoethyl)pyrrolidin-1-yl)-5-methylnicotinonitrile trifluoroacetate salt]
Jak2 (a.a. 828-1132); Assay Conditions 1 mM ATP
  JAK2/JAK1 IC50 ratio: 5.0
[1]; Assay Conditions 1 mM ATP
  IC50: < 0.05 µM

## Cc1cccc(N2CC[C@H]([C@H](CC#N)n3cc(-c4ncnc5[nH]ccc45)cn3)C2)c1C#N [Example 53, 2-((3S)-3-{(1S)-2-cyano-1-[4-(7H-pyrrolo[2,3-d]pyrimidin-4-yl)-1H-pyrazol-1-yl]ethyl}pyrrolidin-1-yl)-6-methylbenzonitrile trifluoroacetate salt]
Jak2 (a.a. 828-1132); Assay Conditions 1 mM ATP
  JAK2/JAK1 IC50 ratio: >7.7
[1]; Assay Conditions 1 mM ATP
  IC50: < 0.05 µM

## N#CCC(C1CCN(c2nc3cncnc3o2)C1)n1cc(-c2ncnc3[nH]ccc23)cn1 (single isomer, unassigned) [Example 18, 3-(1-[1,3]oxazolo[5,4-d]pyrimidin-2-ylpyrrolidin-3-yl)-3-[4-(7H-pyrrolo[2,3-d]pyrimidin-4-yl)-1H-pyrazol-1-yl]propanenitrile]
Jak2 (a.a. 828-1132); Assay Conditions 1 mM ATP
  JAK2/JAK1 IC50 ratio: 10.3
[1]; Assay Conditions 1 mM ATP
  IC50: 0.05 to 0.1 µM

## CCS(=O)(=O)c1cc(N2CCC(C(CC#N)n3ccc(-c4ncnc5[nH]ccc45)c3)C2)ccn1 (racemic) [Example 148-rac, 3-{1-[2-(ethylsulfonyl)pyridin-4-yl]pyrrolidin-3-yl}-3-[3-(7H-pyrrolo[2,3-d]pyrimidin-4-yl)-1H-pyrrol-1-yl]propanenitrile]
Jak2 (a.a. 828-1132); Assay Conditions 1 mM ATP
  JAK2/JAK1 IC50 ratio: 4.0
[1]; Assay Conditions 1 mM ATP
  IC50: < 0.05 µM

## N#Cc1c(N2CC[C@H](C(CF)n3cc(-c4ncnc5[nH]ccc45)cn3)C2)ncc2c1S(=O)(=O)CC2 (single isomer, unassigned) [Example 178]
Jak2 (a.a. 828-1132); Assay Conditions 1 mM ATP
  JAK2/JAK1 IC50 ratio: 31.8
[1]; Assay Conditions 1 mM ATP
  IC50: < 0.05 µM

## N#CCC(C1CCN(c2scc(C#N)c2C#N)C1)n1ccc(-c2ncnc3[nH]ccc23)c1 (single isomer, unassigned) [81 enantiomer 2]
Jak2 (a.a. 828-1132); Assay Conditions 1 mM ATP
  JAK2/JAK1 IC50 ratio: 8.1
[1]; Assay Conditions 1 mM ATP
  IC50: < 0.05 µM

## N#CCC(C1CCN(c2nccc(Cl)n2)C1)n1cc(-c2ncnc3[nH]ccc23)cn1 (single isomer, unassigned) [Example 4b, 3-[1-(4-chloropyrimidin-2-yl)pyrrolidin-3-yl]-3-[4-(7H-pyrrolo[2,3-d]pyrimidin-4-yl)-1H-pyrazol-1-yl]propanenitrile]
Jak2 (a.a. 828-1132); [2]
  JAK2/JAK1 IC50 ratio: 3.7
[1]; [3]
  IC50: < 0.05 µM

## N#CC[C@@H]([C@H]1CCN(c2nc(Cl)ccc2N)C1)n1cc(-c2ncnc3[nH]ccc23)cn1 [Example 105, (S)-3-(4-(7H-pyrrolo[2,3-d]pyrimidin-4-yl)-1H-pyrazol-1-yl)-3-((S)-1-(3-amino-6-chloropyridin-2-yl)pyrrolidin-3-yl)propanenitrile trifluoroacetate salt]
Jak2 (a.a. 828-1132); Assay Conditions 1 mM ATP
  JAK2/JAK1 IC50 ratio: 3.0
[1]; Assay Conditions 1 mM ATP
  IC50: < 0.05 µM

## N#CCC(C1CCN(c2ncc3ccsc3c2C#N)C1)n1cc(-c2ncnc3[nH]ccc23)cn1 (single isomer, unassigned) [Example 175, 6-(3-{2-cyano-1-[4-(7H-pyrrolo[2,3-d]pyrimidin-4-yl)-1H-pyrazol-1-yl]ethyl}pyrrolidin-1-yl)thieno[3,2-c]pyridine-7-carbonitrile]
Jak2 (a.a. 828-1132); Assay Conditions 1 mM ATP
  JAK2/JAK1 IC50 ratio: 15.4
[1]; Assay Conditions 1 mM ATP
  IC50: < 0.05 µM

## CN(C)c1ccnc(N2CCC(C(CC#N)n3cc(-c4ncnc5[nH]ccc45)cn3)C2)n1 (stereo not shown) [Example 6, 3-{1-[4-(dimethylamino)pyrimidin-2-yl]pyrrolidin-3-yl}-3-[4-(7H-pyrrolo[2,3-d]pyrimidin-4-yl)-1H-pyrazol-1-yl]propanenitrile]
Jak2 (a.a. 828-1132); [2]
  JAK2/JAK1 IC50 ratio: >5
[1]; [3]
  IC50: < 0.05 µM

## N#Cc1nnccc1N1CC[C@H](C(CF)n2cc(-c3ncnc4[nH]ccc34)cn2)C1 (single isomer, unassigned) [Example 116]
Jak2 (a.a. 828-1132); Assay Conditions 1 mM ATP
  JAK2/JAK1 IC50 ratio: 6.0
[1]; Assay Conditions 1 mM ATP
  IC50: < 0.05 µM

## N#CCC(C1CCN(c2ncc3cc[nH]c3n2)C1)n1cc(-c2ncnc3[nH]ccc23)cn1 (single isomer, unassigned) [Example 16, 3-[4-(7H-pyrrolo[2,3-d]pyrimidin-4-yl)-1H-pyrazol-1-yl]-3-[1-(7H-pyrrolo[2,3-d]pyrimidin-2-yl)pyrrolidin-3-yl]propanenitrile]
Jak2 (a.a. 828-1132); Assay Conditions 1 mM ATP
  JAK2/JAK1 IC50 ratio: 11.4
[1]; Assay Conditions 1 mM ATP
  IC50: < 0.05 µM

## COCc1ccnc(N2CC[C@H]([C@H](CC#N)n3cc(-c4ncnc5[nH]ccc45)cn3)C2)c1C#N [Example 96, 2-((3S)-3-{(1S)-2-cyano-1-[4-(7H-pyrrolo[2,3-d]pyrimidin-4-yl)-1H-pyrazol-1-yl]ethyl}pyrrolidin-1-yl)-4-(methoxymethyl)nicotinonitrile tris(trifluoroacetate)]
Jak2 (a.a. 828-1132); Assay Conditions 1 mM ATP
  JAK2/JAK1 IC50 ratio: 16.3
[1]; Assay Conditions 1 mM ATP
  IC50: < 0.05 µM

## N#CCC(C1CCN(c2ccnc(Cl)n2)C1)n1cc(-c2ncnc3[nH]ccc23)cn1 (single isomer, unassigned) [3, Step 2a]
Jak2 (a.a. 828-1132); [2]
  JAK2/JAK1 IC50 ratio: 2.3
[1]; [3]
  IC50: < 0.05 µM

## CS(=O)(=O)c1nccc(N2CCC(C(CC#N)n3cc(-c4ncnc5[nH]ccc45)cn3)C2)n1 (single isomer, unassigned) [Example 25, 3-{1-[2-(methylsulfonyl)pyrimidin-4-yl]pyrrolidin-3-yl}-3-[4-(7H-pyrrolo[2,3-d]pyrimidin-4-yl)-1H-pyrazol-1-yl]propanenitrile]
Jak2 (a.a. 828-1132); Assay Conditions 1 mM ATP
  JAK2/JAK1 IC50 ratio: 34
[1]; Assay Conditions 1 mM ATP
  IC50: < 0.05 µM

## N#CC[C@@H]([C@H]1CCN(c2ncnc(C(F)F)c2C#N)C1)n1cc(-c2ncnc3[nH]ccc23)cn1 [Example 110, 4-((S)-3-((S)-1-(4-(7H-pyrrolo[2,3-d]pyrimidin-4-yl)-1H-pyrazol-1-yl)-2-cyanoethyl)pyrrolidin-1-yl)-6-(difluoromethyl)pyrimidine-5-carbonitrile trifluoroacetate salt]
Jak2 (a.a. 828-1132); Assay Conditions 1 mM ATP
  JAK2/JAK1 IC50 ratio: 17.6
[1]; Assay Conditions 1 mM ATP
  IC50: < 0.05 µM

## N#CC[C@@H]([C@H]1CCN(c2cccc(C(F)(F)F)c2C#N)C1)n1cc(-c2ncnc3[nH]ccc23)cn1 [Example 56, 2-((3S)-3-{(1S)-2-cyano-1-[4-(7H-pyrrolo[2,3-d]pyrimidin-4-yl)-1H-pyrazol-1-yl]ethyl}pyrrolidin-1-yl)-6-(trifluoromethyl)benzonitrile trifluoroacetate salt]
Jak2 (a.a. 828-1132); Assay Conditions 1 mM ATP
  JAK2/JAK1 IC50 ratio: >10
[1]; Assay Conditions 1 mM ATP
  IC50: < 0.05 µM

## Cc1cnc2oc(N3CCC(C(CC#N)n4cc(-c5ncnc6[nH]ccc56)cn4)C3)nc2c1 (single isomer, unassigned) [Example 14, 3-[1-(6-methyl[1,3]oxazolo[5,4-b]pyridin-2-yl)pyrrolidin-3-yl]-3-[4-(7H-pyrrolo[2,3-d]pyrimidin-4-yl)-1H-pyrazol-1-yl]propanenitrile]
Jak2 (a.a. 828-1132); [2]
  JAK2/JAK1 IC50 ratio: 4
[1]; [3]
  IC50: < 0.05 µM

## COCc1c(F)cnc(N2CC[C@H]([C@H](CC#N)n3cc(-c4ncnc5[nH]ccc45)cn3)C2)c1F [Example 101, (3S)-3-{(3S)-1-[3,5-difluoro-4-(methoxymethyl)pyridin-2-yl]pyrrolidin-3-yl}-3-[4-(7H-pyrrolo[2,3-d]pyrimidin-4-yl)-1H-pyrazol-1-yl]propanenitrile trifluoroacetate]
Jak2 (a.a. 828-1132); Assay Conditions 1 mM ATP
  JAK2/JAK1 IC50 ratio: 4.0
[1]; Assay Conditions 1 mM ATP
  IC50: < 0.05 µM

## N#CC[C@@H]([C@H]1CCN(c2nccc(I)c2C#N)C1)n1cc(-c2ncnc3[nH]ccc23)cn1 [Example 122, 2-((3S)-3-{(1S)-2-cyano-1-[4-(7H-pyrrolo[2,3-d]pyrimidin-4-yl)-1H-pyrazol-1-yl]ethyl}pyrrolidin-1-yl)-4-iodonicotinonitrile trifluoroacetate]
Jak2 (a.a. 828-1132); Assay Conditions 1 mM ATP
  JAK2/JAK1 IC50 ratio: 188.0
[1]; Assay Conditions 1 mM ATP
  IC50: < 0.05 µM
